Assay results reported in BindingDB's records for patent US20250171447 (Merck Sharp & Dohme, 2025).

Key:
Adenosine receptor A2a = Adenosine receptor A2a (Homo sapiens, UniProt P29274); experiment: A2A Binding Affinity Using SPA
Adenosine receptor A2b = target: T1, Adenosine receptor A2b (Homo sapiens, UniProt P29275); experiment: A2B Binding Affinity Assay
T1 sequence (P29275 whole entry): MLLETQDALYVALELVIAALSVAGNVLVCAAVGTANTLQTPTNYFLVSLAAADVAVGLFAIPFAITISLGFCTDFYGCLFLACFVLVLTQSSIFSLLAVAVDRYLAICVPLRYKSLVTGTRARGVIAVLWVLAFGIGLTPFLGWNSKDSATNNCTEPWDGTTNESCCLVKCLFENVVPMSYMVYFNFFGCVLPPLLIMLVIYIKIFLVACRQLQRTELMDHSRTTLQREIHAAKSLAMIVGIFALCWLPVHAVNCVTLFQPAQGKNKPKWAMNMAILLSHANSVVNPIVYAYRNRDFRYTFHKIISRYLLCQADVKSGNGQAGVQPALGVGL

Sequence of Adenosine receptor A2a (P29274 whole entry): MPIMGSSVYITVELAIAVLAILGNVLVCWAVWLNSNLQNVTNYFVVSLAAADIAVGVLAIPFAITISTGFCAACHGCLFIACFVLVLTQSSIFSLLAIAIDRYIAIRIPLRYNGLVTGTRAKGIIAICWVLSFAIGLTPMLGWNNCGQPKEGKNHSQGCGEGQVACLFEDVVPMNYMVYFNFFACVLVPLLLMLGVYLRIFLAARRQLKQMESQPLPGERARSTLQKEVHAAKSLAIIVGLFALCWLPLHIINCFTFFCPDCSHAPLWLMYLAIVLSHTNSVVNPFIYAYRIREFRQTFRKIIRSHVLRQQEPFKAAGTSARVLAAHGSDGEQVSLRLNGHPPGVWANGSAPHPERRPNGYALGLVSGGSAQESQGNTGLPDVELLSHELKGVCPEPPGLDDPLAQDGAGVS

Compound | IC50 (Adenosine receptor A2a) | IC50 (Adenosine receptor A2b)
COc1cc(F)cc2c1nc(N)n1nc([C@H]3C[C@@H](c4ccc(C(C)(C)O)cn4)C3)nc21 [US20250171447, Ex-45] | 1.6 nM | 6.2 nM
COc1ccc2c(c1)nc(N)n1nc([C@H]3C[C@@H](c4ccc(C(C)(C)O)cn4)C3)nc21 [US20250171447, Ex-59] | 5.7 nM | 
COc1ccc2c(c1)nc(N)n1nc([C@H]3C[C@H](c4cnc(C(C)(C)O)cn4)C3)nc21 [US20250171447, Ex-58] | 136 nM | 
COc1cccc2c1nc(N)n1nc([C@H]3C[C@H](c4ccc(CC(C)(C)O)cn4)C3)nc21 [US20250171447, Ex-66] | 2 nM | 
COc1cc(F)cc2c1nc(N)n1nc(C3CC3(F)c3ccccc3)nc21 (centres undefined) [US20250171447, Ex-29] | 3.5 nM | 45 nM
Cc1nc(C(C)(C)N)cnc1[C@H]1C[C@@H](c2nc3c4cc(F)cc(F)c4nc(N)n3n2)C1 [US20250171447, Ex-130] | 89.2 nM | 
COc1cc(F)cc2c1nc(N)n1nc(C3CC3(F)c3ccccc3)nc21 (centres undefined) [US20250171447, Ex-39] | 0.6 nM | 71.9 nM
COc1cc(F)cc2c1nc(N)n1nc(C3CC3c3ccc(F)cc3)nc21 (centres undefined) [US20250171447, Ex-31] | 44.2 nM | 27.3 nM
Cc1nc(C(C)(C)N)cnc1[C@H]1C[C@@H](c2nc3c4cccc(Cl)c4nc(N)n3n2)C1 [US20250171447, Ex-128] | 52 nM | 
COc1cccc2c1nc(N)n1nc(C3CC(c4ncc(C(C)(C)N)cc4Cl)C3)nc21 (centres undefined) [US20250171447, Ex-87] | 0.8 nM | 2.7 nM
Cc1nc(C(C)(C)N)cnc1[C@H]1C[C@H](c2nc3c4cc(F)cc(F)c4nc(N)n3n2)C1 [US20250171447, Ex-129] | 4.5 nM | 
COc1cccc2c1nc(N)n1nc([C@H]3C[C@H](c4ccc(C(C)(C)O)nc4)C3)nc21 [US20250171447, Ex-53] | 8.8 nM | 
COc1ccc2c(c1)nc(N)n1nc([C@H]3C[C@H](c4ccc(C(C)(C)O)cn4)C3)nc21 [US20250171447, Ex-60] | 7.9 nM | 
COc1cccc2c1nc(N)n1nc([C@H]3C[C@@H](c4ccc(C(C)(C)O)nc4)C3)nc21 [US20250171447, Ex-54] | 1.1 nM | 6.9 nM
COc1cc2nc(N)n3nc([C@H]4C[C@H](c5ncc(C(C)(C)N)nc5C)C4)nc3c2cc1F [US20250171447, Ex-131] | 2.5 nM | 
COc1cc(F)cc2c1nc(N)n1nc(C3CC3(F)c3ccccc3)nc21 (centres undefined) [US20250171447, Ex-33] | 472 nM | 62.4 nM

Compound | IC50 (Adenosine receptor A2a) | IC50 (Adenosine receptor A2b)
COc1cccc2c1nc(N)n1nc([C@H]3C[C@@H](c4ccc(CC(C)(C)O)cn4)C3)nc21 [US20250171447, Ex-65] | 2.1 nM | 
COc1ccc2c(c1)nc(N)n1nc([C@H]3C[C@@H](c4cnc(C(C)(C)O)cn4)C3)nc21 [US20250171447, Ex-57] | 47.4 nM | 
COc1cccc2c1nc(N)n1nc(C3CC3CO)nc21 (centres undefined) [US20250171447, Ex-36] | 20.5 nM | 805 nM
COc1ccc2c(c1)nc(N)n1nc([C@H]3C[C@@H](c4ncc(C(C)(C)O)cn4)C3)nc21 [US20250171447, Ex-62] | 107 nM | 
COc1cc(F)cc2c1nc(N)n1nc([C@H]3C[C@H](c4ccc(C(C)(C)O)cn4)C3)nc21 [US20250171447, Ex-44] | 2.4 nM | 
COc1cccc2c1nc(N)n1nc([C@H]3C[C@H](c4ccc(C(C)(C)N)nc4)C3)nc21 [US20250171447, Ex-84] | 8.2 nM | 
COc1ccc2c(c1)nc(N)n1nc([C@H]3C[C@H](c4ncc(C(C)(C)O)cn4)C3)nc21 [US20250171447, Ex-61] | 42.6 nM | 
COc1cccc2c1nc(N)n1nc(C3CC3CO)nc21 (centres undefined) [US20250171447, Ex-35] | 7.3 nM | 105 nM
COc1ccc2c(c1)nc(N)n1nc([C@H]3C[C@@H](c4ccc(CC(C)(C)O)cn4)C3)nc21 [US20250171447, Ex-55] | 15.5 nM | 
COc1cccc2c1nc(N)n1nc([C@H]3C[C@H](c4ccc(C5(O)CC(F)(F)C5)cn4)C3)nc21 [US20250171447, Ex-103] | 1.1 nM | 
COc1cc2nc(N)n3nc([C@H]4C[C@@H](c5ncc(C(C)(C)N)nc5C)C4)nc3c2cc1F [US20250171447, Ex-132] | 37.2 nM | 
COc1ccc2c(c1)nc(N)n1nc([C@H]3C[C@H](c4ccc(CC(C)(C)O)cn4)C3)nc21 [US20250171447, Ex-56] | 17.8 nM | 
COc1cccc2c1nc(N)n1nc(C3CC(c4ccc(C5(C#N)CNC5)nc4)C3)nc21 (centres undefined) [US20250171447, Ex-116] | 3.1 nM | 
CC(C)(O)c1ccc([C@H]2C[C@@H](c3nc4c5cc(F)cc(F)c5nc(N)n4n3)C2)nc1 [US20250171447, Ex-63] | 7 nM | 0.4 nM
COc1cc(F)cc2c1nc(N)n1nc(C3CC3(F)c3ccccc3)nc21 (centres undefined) [US20250171447, Ex-32] | 377 nM | 601 nM
CC(C)(O)c1ccc([C@H]2C[C@H](c3nc4c5cc(F)cc(F)c5nc(N)n4n3)C2)nc1 [US20250171447, Ex-64] | 16 nM | 1.7 nM
